SMILES strings stand for the structures. Structures can show the parent of a compound that is named as a salt.

The text below walks through data of patent US8202856B2 (Merck Serono SA, priority 2007, dated 2012).

Chain of S1P1 receptor (P21453 whole entry): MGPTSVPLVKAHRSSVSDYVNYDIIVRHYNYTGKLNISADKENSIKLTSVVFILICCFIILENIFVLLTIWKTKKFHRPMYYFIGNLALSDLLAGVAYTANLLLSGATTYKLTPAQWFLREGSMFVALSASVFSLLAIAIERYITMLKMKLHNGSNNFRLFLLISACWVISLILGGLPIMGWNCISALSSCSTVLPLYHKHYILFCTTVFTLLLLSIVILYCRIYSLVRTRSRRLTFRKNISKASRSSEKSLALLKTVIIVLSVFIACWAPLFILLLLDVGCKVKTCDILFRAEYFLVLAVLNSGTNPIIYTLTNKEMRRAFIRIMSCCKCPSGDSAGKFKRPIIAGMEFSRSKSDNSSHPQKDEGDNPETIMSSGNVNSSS

This assay concerns the target S1P1 receptor (Homo sapiens, UniProt P21453). Kind of assay: 35S-GTPγS binding, membranes from CHO cells expressing S1P1. Type of assay: biochemical. The note with it: CHO cell membranes expressing S1P1. The gist of the method:
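Membranes (1–10 μg) from CHO cells expressing the receptor were incubated with compound in 20 mM HEPES pH 7.4, 10 mM MgCl2, 140 mM NaCl, 1.7 μM GDP, saponin and 0.2% BSA. [35S]GTPγS (added at 1.5 nM) was then bound for 60 min at 30 °C. Membrane-bound radioactivity, averaged over triplicates, is expressed relative to S1P activation (n=2).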
In general terms: GTPγS is a poorly hydrolysed GTP analogue; its binding reports G protein activation.
A word on the EC50: it is the midpoint of the concentration-response curve. A lower EC50 goes with a more potent agent. As to `OCCc1ccc(-c2noc(-c3nnn(-c4ccccc4F)c3-c3ccncc3)n2)cc1` [Example 150, 2-(4-{5-[1(2-fluorophenyl)-5-pyridin-4-yl-1H-1,2,3-triazol-4-yl]-1,2,4-oxadiazol-3-yl}phenyl)ethanol], the EC50 was found to be 0.043 µM.
The result for `Fc1ccccc1-n1nnc(-c2nc(-c3cccc(C(F)(F)F)c3)no2)c1CN1CCOCC1` [Example 151, 4-[(1-(2-fluorophenyl)-4-{3-[3-(trifluoromethyl)phenyl]-1,2,4-oxadiazol-5-yl}-1H-1,2,3-triazol-5-yl)methyl]morpholine] reads 0.34 µM.
The result for `Nc1cc(-c2noc(-c3nnn(-c4ccccc4F)c3-c3ccncc3)n2)ccn1` [Example 152, 4-{5-[1-(2-fluorophenyl)-5-pyridin-4-yl-1H-1,2,3-triazol-4-yl]-1,2,4-oxadiazol-3-yl}pyridin-2-amine] reads 0.078 µM; that for `CC(=O)N1CCc2cc(-c3noc(-c4nnn(-c5ccccc5F)c4-c4ccncc4)n3)ccc21` [Example 153, 1-acetyl-5-{5-[1-(2-fluorophenyl)-5-pyridin-4-yl-1H-1,2,3-triazol-4-yl]-1,2,4-oxadiazol-3-yl}indoline], 0.09 µM; that for `CCN1CCc2ccc(-c3noc(-c4nnn(-c5ccccc5F)c4-c4ccncc4)n3)cc2C1` [Example 154, 2-ethyl-7-{5-[1-(2-fluorophenyl)-5-pyridin-4-yl-1H-1,2,3-triazol-4-yl]-1,2,4-oxadiazol-3-yl}-1,2,3,4-tetrahydroisoquinoline], 0.918 µM.
The same measure for `Fc1ccccc1-n1nnc(-c2nc(-c3ccc4[nH]cnc4c3)no2)c1-c1ccncc1` [Example 155, 5-{5-[1-(2-fluorophenyl)-5-pyridin-4-yl-1H-1,2,3-triazol-4-yl]-1,2,4-oxadiazol-3-yl}-1H-benzimidazole]: 0.251 µM; for `Fc1ccccc1-n1nnc(-c2nc(-c3ccc4c(c3)CCN4)no2)c1-c1ccncc1` [Example 156, 5-{5-[1-(2-fluorophenyl)-5-pyridin-4-yl-1H-1,2,3-triazol-4-yl]-1,2,4-oxadiazol-3-yl}indoline hydrochloride]: 0.027 µM; for `Fc1ccccc1-n1nnc(-c2nc(-c3ccc4c(c3)NCC4)no2)c1-c1ccncc1` [Example 157, 6-{5-[1-(2-fluorophenyl)-5-pyridin-4-yl-1H-1,2,3-triazol-4-yl]-1,2,4-oxadiazol-3-yl}indoline]: 0.218 µM.
Consider `O=C(O)C1CCCN(Cc2ccc(-c3noc(-c4nnn(-c5ccccc5F)c4-c4ccncc4)n3)cc2)C1` (stereo not shown) [Example 158, 1-(4-{5-[1-(2-fluorophenyl)-5-pyridin-4-yl-1H-1,2,3-triazol-4-yl]-1,2,4-oxadiazol-3-yl}benzyl)piperidine-3-carboxylic acid], for which the response was half-maximal at 0.056 µM (EC50).
The same measure for `O=C(O)[C@@H]1CCCN1Cc1ccc(-c2noc(-c3nnn(-c4ccccc4F)c3-c3ccncc3)n2)cc1` [Example 159, 1-(4-{5-[1(2-fluorophenyl)-5-pyridin-4-yl-1H-1,2,3-triazol-4-yl]-1,2,4-oxadiazol-3-yl}benzyl)-L-proline]: 0.574 µM; for `Fc1ccccc1-n1nnc(-c2nc(-c3ccc(CN4CC[C@@H](F)C4)cc3)no2)c1-c1ccncc1` [Example 160, 4-{1-(2-fluorophenyl)-4-[3-(4-{[(3R)-3-fluoropyrrolidin-1-yl]methyl}phenyl)-1,2,4-oxadiazol-5-yl]-1H-1,2,3-triazol-5-yl}pyridine]: 0.071 µM.
The same measure for `Fc1ccccc1-n1nnc(-c2nc(-c3ccc(CN4CCC(F)(F)CC4)cc3)no2)c1-c1ccncc1` [Example 161]: 0.545 µM.
Consider `O=C(O)C1(NCc2ccc(-c3noc(-c4nnn(-c5ccccc5F)c4-c4ccncc4)n3)cc2)CC1` [Example 162, 1-(4-(5-(1-(2-fluorophenyl)-5-(pyridin-4-yl)-1H-1,2,3-triazol-4-yl)-1,2,4-oxadiazol-3-yl)benzylamino)cyclopropanecarboxylic acid], for which the response was half-maximal at 0.211 µM (EC50).
The result for `O=C(O)[C@H]1CC[C@@H](NCc2ccc(-c3noc(-c4nnn(-c5ccccc5F)c4-c4ccncc4)n3)cc2)CC1` [Example 163] reads 0.08 µM; that for `Fc1ccccc1-n1nnc(-c2nc(-c3ccc(CNC4CC4)cc3)no2)c1-c1ccncc1` [Example 164, N-(4-{5-[1-2-fluorophenyl)-5-pyridin-4-yl-1H-1,2,3-triazol-4-yl]-1,2,4-oxadiazol-3-yl}benzyl)cyclopropanamine formate], 0.027 µM; that for `CC(C)NCc1ccc(-c2noc(-c3nnn(-c4ccccc4F)c3-c3ccncc3)n2)cc1` [Example 165, N-(4-{5-[1-(2-fluorophenyl)-5-pyridin-4-yl-1H-1,2,3-triazol-4-yl]-1,2,4-oxadiazol-3-yl}benzyl)propan-2-amine], 0.017 µM.
The same measure for `COCCN(C)Cc1ccc(-c2noc(-c3nnn(-c4ccccc4F)c3-c3ccncc3)n2)cc1` [Example 166, N-(4-(5-(1-(2-fluorophenyl)-5-(pyridin-4-yl)-1H-1,2,3-triazol-4-yl)-1,2,4-oxadiazol-3-yl)benzyl)-2-methoxy-N-methylethanamine]: 0.218 µM; for `Fc1ccccc1-n1nnc(-c2nc(-c3ccc(CN4CC[C@H](F)C4)cc3)no2)c1-c1ccncc1` [Example 167, 4-{1-(2-fluorophenyl)-4-[3-(4-{[(3S)-3-fluoropyrrolidin-1-yl]methyl}phenyl)-1,2,4-oxadiazol-5-yl]-1H-1,2,3-triazol-5-yl}pyridine]: 0.015 µM; for `O=C(O)[C@H]1CC[C@H](NCc2ccc(-c3noc(-c4nnn(-c5ccccc5F)c4-c4ccncc4)n3)cc2)CC1` [Example 168, (trans)-4-(4-(5-(1-(2-fluorophenyl)-5-(pyridin-4-yl)-1H-1,2,3-triazol-4-yl)-1,2,4-oxadiazol-3-yl)benzylamino)cyclohexanecarboxylic acid]: 0.016 µM.
In the case of `O=C(O)[C@H]1CC[C@@H](NCc2ccc(-c3noc(-c4nnn(-c5ccccc5F)c4-c4ccncc4)n3)cc2)C1` [Example 169, (1S, 3R)-3-(4-(5-(1-(2-fluorophenyl)-5-(pyridin-4-yl)-1H-1,2,3-triazol-4-yl)-1,2,4-oxadiazol-3-yl)benzylamino)cyclopentanecarboxylic acid], a half-maximal response (EC50) required 0.008 µM.
`Fc1ccccc1-n1nnc(-c2nc(-c3ccc(Cn4ccnc4)cc3)no2)c1-c1ccncc1` [Example 170, 4-(1-(2-fluorophenyl)-4-{3-[4-(1H-imidazol-1-ylmethyl)phenyl]-1,2,4-oxadiazol-5-yl}-1H-1,2,3-triazol-5-yl)pyridine] came in with an EC50 of 0.004 µM.
The result for `Fc1ccccc1-n1nnc(-c2nc(-c3ccc(Cn4cccn4)cc3)no2)c1-c1ccncc1` [Example 171, 4-(1-(2-fluorophenyl)-4-{3-[4-(1H-pyrazol-1-ylmethyl)phenyl]-1,2,4-oxadiazol-5-yl}-1H-1,2,3-triazol-5-yl)pyridine] reads 0.011 µM.
The result for `Fc1ccccc1-n1nnc(-c2nc(-c3ccc(Cn4cncn4)cc3)no2)c1-c1ccncc1` [Example 172, 4-(1-(2-fluorophenyl)-4-{3-[4-(1H-1,2,4-triazol-1-ylmethyl)phenyl]-1,2,4-oxadiazol-5-yl}-1H-1,2,3-triazol-5-yl)pyridine] reads 0.005 µM; that for `COCc1c(-c2nc(-c3ccc(Cn4cccn4)cc3)no2)nnn1-c1ccccc1F` [Example 173, 5-[1-(2-fluorophenyl)-5-(methoxymethyl)-1H-1,2,3-triazol-4-yl]-3-[4-(1H-pyrazol-1-ylmethyl)phenyl]-1,2,4-oxadiazole], 0.24 µM; that for `CC(C)(NCc1ccc(-c2noc(-c3nnn(-c4ccccc4F)c3-c3ccncc3)n2)cc1)C(=O)O` [Example 174, N-(4-{5-[1-(2-fluorophenyl)-5-pyridin-4-yl-1H-1,2,3-triazol-4-yl]-1,2,4-oxadiazol-3-yl}benzyl)-2-methylalanine], 0.162 µM.
The same measure for `COCc1c(-c2nc(-c3ccc(Cn4ccnc4)cc3)no2)nnn1-c1ccccc1F` [Example 175, 5-[1-(2-fluorophenyl)-5-(methoxymethyl)-1H-1,2,3-triazol-4-yl]-3-[4-(1H-imidazol-1-ylmethyl)phenyl]-1,2,4-oxadiazole]: 0.067 µM; for `COCc1c(-c2nc(-c3ccc(Cn4cncn4)cc3)no2)nnn1-c1ccccc1F` [Example 176, 5-[1-(2-fluorophenyl)-5-(methoxymethyl)-1H-1,2,3-triazol-4-yl]-3-[4-(1H-1,2,4-triazol-1-ylmethyl)phenyl]-1,2,4-oxadiazole]: 0.105 µM.
In turn, `O=C(O)[C@H]1CCC[C@H]1NCc1ccc(-c2noc(-c3nnn(-c4ccccc4F)c3-c3ccncc3)n2)cc1` [Example 177, (1S,2R)-2-[(4-{5-[1-(2-fluorophenyl)-5-pyridin-4-yl-1H-1,2,3-triazol-4-yl]-1,2,4-oxadiazol-3-yl}benzyl)amino]cyclopentanecarboxylic acid] showed a 50% effective concentration (EC50) of 0.742 µM.
